Consider 5 compounds from publication PMC11466185, “Mechanisms and efficacy of small molecule latency-promoting agents to inhibit HIV reactivation ex vivo” (JCI Insight, 2024).

Values joined by “and” are separate entries in the source; they are usually repeats but may differ in a detail not shown here. Equal entries are not always repeated. Where two headings read alike, the source gives them in different places.

For data set [1], the system named is HIV transcripts (TAR, LLTR, Pol, PolyA, TatRev). The experiment in a line: Cell-associated HIV transcripts (RT-ddPCR) 6 days after anti-CD3/CD28 activation of PBMCs from ART-suppressed PWH. Type of data set: cell-based. The following applies: for Pol / PolyA / TAR / TatRev: DMSO αCD3/28 = 100, Fig 4A; for LLTR/TAR / PolyA/LLTR / TatRev/PolyA: DMSO+CD3/28 = 1, Fig 4B, C and D. The procedure:
(§1) Next, we evaluated the ability of the candidate LPAs to sustain the inhibitory effects during a prolonged ex vivo culture. To this end, PBMCs were cultured in the presence of individual drugs in DMSO or in DMSO alone as control, activated (anti-CD3/CD28), and harvested after 6 days. […] However, we decided to test the drug on day 6 because extra cells were available from some study participants.
Each drug was tested in PBMCs from at least 6 ART-suppressed study participants (except for KRIBB11, n = 5). PBMCs were aliquoted into wells at 6 × 10^6 cells/well. After activation, the cells were cultured with antiretrovirals in the presence of individual drugs in DMSO or DMSO alone as control. All conditions were tested in the presence of CD3/28 T cell–activating beads, except for the unactivated DMSO condition. After 6 days, total cellular RNA was extracted, and the progression through different stages of HIV transcription was quantified by measuring the levels of initiated (TAR), 5′ elongated (LLTR), midtranscribed/unspliced (Pol), completed (PolyA), and multiply spliced (TatRev) HIV transcripts. (A) The levels of all HIV transcripts were normalized to 1 μg of total cellular RNA and expressed as a percentage of the activated DMSO control (% of activated DMSO). Medians are shown as well as the individual values per study participant in different colors. (B–D) The effect of each drug on HIV transcriptional progression after activation was analyzed by the ratio of one HIV transcript to another. Ratios are independent of HIV infection frequency or normalization to cell numbers. Shown are the proportion of (B) all HIV transcripts that are elongated (LLTR/TAR), (C) elongated HIV transcripts that are completed (PolyA/LLTR), and (D) completed transcripts that are multiply spliced (TatRev/PolyA). Medians and IQR are presented, along with the individual values per study participant in different colors. P values were calculated using Wilcoxon’s signed-rank test: *P < 0.05.
PBMCs were isolated from fresh venous blood from 16 ART-suppressed HIV-infected study participants using Ficoll density gradient centrifugation. The cells were seeded at 6 × 10^6 cells/well and cultured with antiretrovirals (nevirapine and indinavir) to prevent new infection. On the next day, PBMCs were activated with anti-CD3/CD28–coated beads (Invitrogen) in the presence of 20 U/mL IL-2 and individual drugs in DMSO or DMSO alone as a control. Since we were limited in the PBMC yield per study participant, different study participants were used for different experiments (such as the initial screen, dose response, different time points, and studies in activated vs. unstimulated cells). In addition, the yields of PBMCs were sometimes insufficient to test all drugs for a given question or experiment.
(§2) For quantification of cell-associated HIV transcripts, PBMCs were harvested either after 24 hours or after 6 days. The cell viabilities were measured by trypan blue staining; then the cells were pelleted by centrifuging at 300g for 6 minutes and stored at –80°C. For quantification of virion-associated HIV RNA, cell culture supernatant was collected from 6 × 10^6 PBMCs that were treated and activated for 6 days as described above. Residual cells and cellular debris were subsequently removed from the supernatant by differential centrifugation (300g for 6 minutes, then 20,000g for 10 minutes), and the supernatant was stored at –80°C.
Total cellular DNA and RNA were extracted in parallel using Trireagent (Molecular Research Center) according to the manufacturer’s instructions, except for study participants 2147 and 2461 (Figure 4), for whom DNA and RNA were extracted using the QIAGEN AllPrep DNA/RNA/miRNA Universal Kit with on-column DNase I treatment of the RNA and the manufacturer’s modification to enhance recovery of short transcripts.

In data set [2] the test system is PBMCs. Type of data set: cell-based, human. The following applies: 6 days after αCD3/28 activation, each row one participant. As for the experimental part:
as §1, §2
A) After six days, the viability was measured by trypan blue staining and then normalized to the levels of the activated DMSO (% of activated DMSO). Bars indicate medians and different colors indicate individual study participants. B-F) Each drug was tested in PBMCs from at least six ART-suppressed study participants (except for KRIBB11, n=5) and the PBMCs were aliquoted into wells at 6x10^6 cells/well. After activation, the cells were cultured with antiretrovirals in the presence of individual drugs in DMSO or DMSO alone as control. After six days, total RNA was extracted and the progression through different stages of HIV transcription was (1 picture or pasted object on this page, not shown here)

Take `CO[C@H]([C@@H](C)[C@H]1O[C@]1(C)C[C@H](C)/C=C/C=C(\C)[C@H]1O[C@@H](CC(=O)O)CC[C@@H]1C)[C@@H](C)O` [herboxidiene]: the “LLTR HIV transcripts (DMSO αCD3/28 = 100)” value in data set [1] (5nM, 6 days after αCD3/28 activation, each column one participant) is 64.2 and 58.48 and 54.61 and 276.32 and 371.71 and 49.79 and 55 and 16.86. Besides, the Pol in data set [1] (participant 150b) amounted to 43.29; in data set [1] (participant 1379), 47.94; in data set [1] (participant 2027) it was 133.33; in data set [1] (participant 2147a) it was 105.88; in data set [1] (participant 2161), 169.45; in data set [1] (participant 2256) it was 18.46. Further, the Pol in data set [1] (participant 5557) turned out to be 23.16. The PolyA in data set [1] (participant 150b) came out at 23.53; in data set [1] (participant 1379), 28.08; in data set [1] (participant 2027), 36.92; in data set [1] (participant 2147a), 21.76; in data set [1] (participant 2161), 268.67; in data set [1] (participant 2256), 16.27. The PolyA is recorded as 1692.31 in data set [1] (participant 2461) and 23.33 in data set [1] (participant 5557). The TAR in data set [1] (participant 150b) is reported as 92.09; in data set [1] (participant 1379) it was 40.01; in data set [1] (participant 2027), 82.42; in data set [1] (participant 2147a), 362.23; in data set [1] (participant 2161), 215.96; in data set [1] (participant 2256), 31.94. Moreover, the values for the TAR in data set [1] (participant 2461) and in data set [1] (participant 5557) were 52.19 and 83.93, respectively. Further, the TatRev in data set [1] (participant 150b) was found to be 2.69; in data set [1] (participant 1379) it was 171.43; in data set [1] (participant 2027), 0; in data set [1] (participant 2147a) it was 28.42; in data set [1] (participant 2161) it was 176.87; in data set [1] (participant 2256) it was 1.4. In data set [1] (participant 5557), this compound displayed a TatRev of 0. Besides, the LLTR/TAR in data set [1] (participant 150b) amounted to 0.5407; in data set [1] (participant 1379) it was 1.462; in data set [1] (participant 2027) it was 0.6673; in data set [1] (participant 2147a) it was 0.1772; in data set [1] (participant 2161) it was 1.7212; in data set [1] (participant 2256), 0.5278. Also, the LLTR/TAR was determined as 5.294 in data set [1] (participant 2461), 0 in data set [1] (participant 2747) and 0.6507 in data set [1] (participant 5557). The PolyA/LLTR in data set [1] (participant 150b) turned out to be 0.4726; in data set [1] (participant 1379), 0.4801; in data set [1] (participant 2027), 0.6713; in data set [1] (participant 2147a), 0.339; in data set [1] (participant 2161), 0.72; in data set [1] (participant 2256), 0.9648. For the same compound, the PolyA/LLTR is given as 6.125 in data set [1] (participant 2461) and 0.4272 in data set [1] (participant 5557). Moreover, the TatRev/PolyA in data set [1] (participant 150b) is on record as 0.11; in data set [1] (participant 1379) it was 6.105; in data set [1] (participant 2147a) it was 0.3013; in data set [1] (participant 2161) it was 0.6583. Moreover, in data set [2] (5nM), the “Cell viability (DMSO αCD3/28 = 100)” value is 119.6 and 123.7 and 95.53 and 100.64 and 118.06 and 114.9 and 85 and 106.6 and 119.5.
`COc1ccc(-c2cc(=O)c3c(O)cc(O)c(-c4cc(-c5cc(=O)c6c(O)cc(O)cc6o5)ccc4OC)c3o2)cc1` [isoginkgetin]: the LLTR/TAR in data set [1] (participant 150b) amounted to 0.8798; in data set [1] (participant 1379) it was 1.373; in data set [1] (participant 2027), 0.7253; in data set [1] (participant 2147a), 0.06726; in data set [1] (participant 2161) it was 0.6564; in data set [1] (participant 2256) it was 1.751. Also, the LLTR/TAR in data set [1] (participant 2461) is recorded as 1.166; in data set [1] (participant 2747), 0; in data set [1] (participant 5557), 0.8133. The PolyA/LLTR came out at 1.092 in data set [1] (participant 150b); 0.4663 in data set [1] (participant 1379); 0.8811 in data set [1] (participant 2027); 1.437 in data set [1] (participant 2147a); 0.57 in data set [1] (participant 2161); 0.07578 in data set [1] (participant 2256). In addition, the PolyA/LLTR in data set [1] (participant 2461) is given as 0.2875; in data set [1] (participant 5557), 0.9591. The TatRev/PolyA in data set [1] (participant 150b) is given as 1.01; in data set [1] (participant 2147a), 0.8892; in data set [1] (participant 5557), 0.5795. Besides, the “Cell viability (DMSO αCD3/28 = 100)” value in data set [2] (25μM) was 120.3 and 106.36 and 93.99 and 112.22 and 91.65 and 74.9 and 87.5 and 124.6.
Consider `O=c1c(O)c(-c2ccc(O)c(O)c2)oc2cc(O)cc(O)c12` [quercetin], for which the LLTR/TAR in data set [1] (participant 150b) stood at 0.7842; in data set [1] (participant 2027), 0.9301; in data set [1] (participant 2147a), 0.08494; in data set [1] (participant 2256), 0.9386; in data set [1] (participant 2461) it was 1.332. Further, the PolyA/LLTR in data set [1] (participant 150b) was determined as 1.289; in data set [1] (participant 2027) it was 0.981; in data set [1] (participant 2147a) it was 0.5196; in data set [1] (participant 2161) it was 0.79; in data set [1] (participant 2256), 0.8949. Moreover, the TatRev/PolyA in data set [1] (participant 150b) is recorded as 0.75; in data set [1] (participant 2027) it was 0.6894; in data set [1] (participant 2147a) it was 0.8518; in data set [1] (participant 2161) it was 0.8634; in data set [1] (participant 2747), 0. Also, the “Cell viability (DMSO αCD3/28 = 100)” value in data set [2] (5μM) was 74.1 and 98.05 and 112.6 and 106 and 105.8.
With `C=CCNC1=C2C[C@@H](C)C[C@H](OC)[C@H](O)[C@@H](C)/C=C(\C)[C@H](OC(N)=O)[C@@H](OC)/C=C\C=C(/C)C(=O)NC(=CC1=O)C2=O` [tanespimycin], the LLTR/TAR is listed as 1.555 in data set [1] (participant 150b); 1.931 in data set [1] (participant 1379); 0.63 in data set [1] (participant 1713); 1.469 in data set [1] (participant 2147b); 1.634 in data set [1] (participant 2256); 1.458 in data set [1] (participant 2750). In addition, the LLTR/TAR in data set [1] (participant 5557) is 1.09. Besides, the PolyA/LLTR in data set [1] (participant 150b) came out at 0.0721; in data set [1] (participant 1379) it was 0; in data set [1] (participant 1713), 0.35; in data set [1] (participant 2147b), 0; in data set [1] (participant 2256) it was 0.2174; in data set [1] (participant 2750), 1.811. Further, in data set [1] (participant 5557), the PolyA/LLTR is given as 0.1459. Besides, the TatRev/PolyA turned out to be 1.52 in data set [1] (participant 150b), 3.43 in data set [1] (participant 2256), 0 in data set [1] (participant 2750) and 0 in data set [1] (participant 5557). Also, the “Cell viability (DMSO αCD3/28 = 100)” value in data set [2] (5μM) was 119.92 and 93.07 and 93.65 and 100.43 and 91.95 and 100.9 and 116.6.
Take `CC(C)[C@]12O[C@H]1[C@@H]1O[C@]13[C@]1(O[C@H]1C[C@H]1C4=C(CC[C@@]13C)C(=O)OC4)[C@@H]2O` [triptolide]: the LLTR/TAR in data set [1] (participant 150b) amounted to 0.3514; in data set [1] (participant 2147b) it was 1.135; in data set [1] (participant 2750), 14.8232. In addition, the “Cell viability (DMSO αCD3/28 = 100)” value in data set [2] (25-50nM) is 81.87 and 92.51 and 90.83 and 106.88 and 80.32 and 104.1.
